Measured values from patent US20070253907A1, “Non Human Transgenic Animal as Model of Neurodegenerative Diseases and for the Early Diagnosis Thereof” (priority 2004, published 2007).
“Also recorded” adds a separate entry of the source.

Tested on: VK-AD11 mice
Assay: Reversal of the neurodegenerative phenotype of VK-AD11 mice by intranasal NGF administration
Type: in vivo
Conditions: VK-AD11 mice from 4 months of age, NGF 10 μM solution intranasally every 2 days
Procedure: All experiments were conducted in mice starting from 4 months of age, when neurodegeneration is not so readily apparent. NGF was administered by intranasal injection (Frey et al., 1997) conducted every 2 days. NGF was administered as a 10 μM solution in phosphate buffer pH 7.4, injecting 3 μl per nostril every 2 min and alternating nostrils. The VK-AD11 control mice and non transgenic mice were treated only with phosphate buffer. For each administration, the infusion lasted 30 min. This non invasive method for administering NGF allows to avoid the use of the intraventricular injections to apply NGF directly to the cerebral tissue.
To verify the administration of NGF, the mice were sacrificed 2 months from the begining of the treatment. The brain was removed and fixed in paraformaldehyde to conduct histological analyses.

## NGF: Nerve Growth Factor, administered intranasally as a 10 μM solution in phosphate buffer pH 7.4
Histology 2 months from beginning of treatment (FIG. 18A)
  cholinergic deficit: improves; also recorded: a similar phenotype to that of the non transgenic control mice was re-established
Histology 2 months from beginning of treatment (FIG. 18B)
  deposition of β-amyloid (number of cells containing β-amyloid): decreases; also recorded: a similar phenotype to that of the non transgenic control mice was re-established
Histology 2 months from beginning of treatment (FIG. 18C)
  hyperphosphorylated tau (number of cells that express phosphorylated tau): decreases; also recorded: a similar phenotype to that of the non transgenic control mice was re-established
